In patent publication US10233173B2, “Substituted 1,2,3-triazoles as NR2B-selective NMDA modulators” (JANSSEN PHARMACEUTICA NV, priority 2016, dated 2019):

What follows are molecules tested against human GluN1/GluN2B NMDA receptors (Homo sapiens, UniProt Q05586+Q13224) (assay: Cell-based calcium flux (FLIPR) assay on cloned human NR1/NR2B ion channels expressed in mammalian cells). Details: standard assay; glutamate at ~EC80; FLIPR calcium flux.
Method in brief: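 Calcium influx followed by FLIPR fluorescence after 5 min compound exposure and a further 5 min co-agonist challenge: 10 μM glycine with glutamate at ~EC80 (standard) or EC40 (HTS).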

human GluN1/GluN2B NMDA receptors, sequence (Q13224 27-1484, other chains not shown): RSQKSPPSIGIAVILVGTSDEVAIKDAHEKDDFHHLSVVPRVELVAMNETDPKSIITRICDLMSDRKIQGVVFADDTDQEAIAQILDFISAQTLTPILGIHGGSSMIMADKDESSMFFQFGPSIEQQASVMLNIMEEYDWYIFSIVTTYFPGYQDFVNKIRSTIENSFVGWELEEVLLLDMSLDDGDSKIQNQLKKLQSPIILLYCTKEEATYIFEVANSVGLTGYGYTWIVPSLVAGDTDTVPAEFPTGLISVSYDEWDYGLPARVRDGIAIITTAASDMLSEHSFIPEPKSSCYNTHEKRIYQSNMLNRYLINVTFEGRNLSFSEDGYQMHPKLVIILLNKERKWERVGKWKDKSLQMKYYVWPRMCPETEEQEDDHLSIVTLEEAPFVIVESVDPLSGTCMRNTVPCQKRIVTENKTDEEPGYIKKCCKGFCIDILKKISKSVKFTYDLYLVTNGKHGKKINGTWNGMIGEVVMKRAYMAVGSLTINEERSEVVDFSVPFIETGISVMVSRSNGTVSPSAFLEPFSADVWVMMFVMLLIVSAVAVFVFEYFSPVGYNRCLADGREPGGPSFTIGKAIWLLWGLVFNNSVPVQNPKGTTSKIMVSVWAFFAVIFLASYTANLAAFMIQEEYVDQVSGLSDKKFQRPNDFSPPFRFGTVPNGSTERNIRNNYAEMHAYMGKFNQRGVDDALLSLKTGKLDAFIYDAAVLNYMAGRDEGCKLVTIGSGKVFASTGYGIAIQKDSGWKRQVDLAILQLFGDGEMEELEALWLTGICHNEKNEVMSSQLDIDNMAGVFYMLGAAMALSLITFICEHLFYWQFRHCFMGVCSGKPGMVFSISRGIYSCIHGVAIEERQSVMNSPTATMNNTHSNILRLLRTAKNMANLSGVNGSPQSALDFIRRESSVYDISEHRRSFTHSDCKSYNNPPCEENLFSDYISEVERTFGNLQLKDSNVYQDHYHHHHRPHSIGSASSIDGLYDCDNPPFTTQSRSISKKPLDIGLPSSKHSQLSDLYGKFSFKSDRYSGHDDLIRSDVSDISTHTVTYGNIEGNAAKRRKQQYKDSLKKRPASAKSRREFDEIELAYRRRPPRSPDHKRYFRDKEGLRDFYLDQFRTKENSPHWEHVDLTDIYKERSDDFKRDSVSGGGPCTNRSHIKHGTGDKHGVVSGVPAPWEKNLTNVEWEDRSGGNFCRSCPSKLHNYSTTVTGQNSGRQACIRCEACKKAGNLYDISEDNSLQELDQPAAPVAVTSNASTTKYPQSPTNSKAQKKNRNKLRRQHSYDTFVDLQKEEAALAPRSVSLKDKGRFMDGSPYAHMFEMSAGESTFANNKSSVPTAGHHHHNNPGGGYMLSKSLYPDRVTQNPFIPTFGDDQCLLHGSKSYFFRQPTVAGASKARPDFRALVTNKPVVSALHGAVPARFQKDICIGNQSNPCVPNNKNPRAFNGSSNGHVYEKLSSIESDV

| SMILES | IC50 |
| --- | --- |
| FC1CN(c2cnc(OCc3cn(-c4ccc(Cl)c(OC(F)F)c4)nn3)nc2)C1 [Example 392, 2-((1-(4-Chloro-3-(difluoromethoxy)phenyl)-1H-1,2,3-triazol-4-yl)methoxy)-5-(3-fluoroazetidin-1-yl)pyrimidine] | 0.017 µM |
| FC(F)Oc1cc(-n2cc(COc3ncc(N4CC(F)(F)C4)cn3)nn2)ccc1Cl [Example 393, 2-((1-(4-Chloro-3-(difluoromethoxy)phenyl)-1H-1,2,3-triazol-4-yl)methoxy)-5-(3,3-difluoroazetidin-1-yl)pyrimidine] | 0.037 µM |
| Fc1cccc(OCc2cn(-c3ccc(Cl)c(OC(F)F)c3)nn2)n1 [Example 394, 2-[[1-[4-Chloro-3-(difluoromethoxy)phenyl]triazol-4-yl]methoxy]-6-fluoro-pyridine] | 0.437 µM |
| Fc1ccc(-n2cc(COc3cccc(C(F)(F)F)n3)nn2)cc1OC(F)F [Example 395, 2-[[1-[3-(Difluoromethoxy)-4-fluoro-phenyl]triazol-4-yl]methoxy]-6-(trifluoromethyl)pyridine] | 0.919 µM |
| Cc1cnc(OCc2cn(-c3ccc(F)c(OC(F)F)c3)nn2)cn1 [Example 396, 2-[[1-[3-(Difluoromethoxy)-4-fluoro-phenyl]triazol-4-yl]methoxy]-5-methyl-pyrazine] | 0.647 µM |
| Fc1ccc(-n2cc(COc3cnc(-c4cccs4)cn3)nn2)cc1OC(F)F [Example 397, 2-[[1-[3-(Difluoromethoxy)-4-fluoro-phenyl]triazol-4-yl]methoxy]-5-(2-thienyl)pyrazine] | 10.7 µM |
| COCc1ccnc(OCc2cn(-c3ccc(F)c(C(F)F)c3)nn2)n1 [Example 399, 2-[[1-[3-(Difluoromethyl)-4-fluoro-phenyl]triazol-4-yl]methoxy]-4-(methoxymethyl)pyrimidine] | 0.023 µM |
| OCc1ccnc(OCc2cn(-c3ccc(F)c(C(F)F)c3)nn2)n1 [Example 400, [2-[[1-[3-(Difluoromethyl)-4-fluoro-phenyl]triazol-4-yl]methoxy]pyrimidin-4-yl]methanol] | 0.036 µM |
| CC(C)(O)c1cnc(OCc2cn(-c3ccc(F)c(C(F)F)c3)nn2)nc1 [Example 401, 2-[2-[[1-[3-(Difluoromethyl)-4-fluoro-phenyl]triazol-4-yl]methoxy]pyrimidin-5-yl]propan-2-ol] | 0.017 µM |
| Fc1ccc(-n2cc(COc3nccc(C(F)F)n3)nn2)cc1C(F)F [Example 402, 4-(Difluoromethyl)-2-[[1-[3-(difluoromethyl)-4-fluoro-phenyl]triazol-4-yl]methoxy]pyrimidine] | 0.051 µM |
| Fc1ccc(-n2cc(COc3nccc(C(F)(F)F)n3)nn2)cc1C(F)F [Example 403, 2-[[1-[3-(Difluoromethyl)-4-fluoro-phenyl]triazol-4-yl]methoxy]-4-(trifluoromethyl)pyrimidine] | 0.199 µM |
| CNC(=O)c1cnc(OCc2cn(-c3ccc(F)c(C(F)F)c3)nn2)nc1 [Example 409, 2-[[1-[3-(Difluoromethyl)-4-fluoro-phenyl]triazol-4-yl]methoxy]-N-methyl-pyrimidine-5-carboxamide] | 0.149 µM |
| CN(C)C(=O)c1ccnc(OCc2cn(-c3ccc(F)c(C(F)F)c3)nn2)n1 [Example 410, 2-[[1-[3-(Difluoromethyl)-4-fluoro-phenyl]triazol-4-yl]methoxy]-N,N-dimethyl-pyrimidine-4-carboxamide] | > 2.99 µM |
| COc1nc(OCc2cn(-c3ccc(F)c(C(F)F)c3)nn2)ncc1C [Example 411, 2-[[1-[3-(Difluoromethyl)-4-fluoro-phenyl]triazol-4-yl]methoxy]-4-methoxy-5-methyl-pyrimidine] | 0.021 µM |
| Nc1ccnc(OCc2cn(-c3ccc(F)c(C(F)F)c3)nn2)n1 [Example 412, 2-[[1-[3-(Difluoromethyl)-4-fluoro-phenyl]triazol-4-yl]methoxy]pyrimidin-4-amine] | 0.124 µM |
| CNc1ccnc(OCc2cn(-c3ccc(F)c(C(F)F)c3)nn2)n1 [Example 413, 2-[[1-[3-(Difluoromethyl)-4-fluoro-phenyl]triazol-4-yl]methoxy]-N-methyl-pyrimidin-4-amine] | 0.015 µM |

| SMILES | IC50 |
| --- | --- |
| CNc1nc(OCc2cn(-c3ccc(F)c(C(F)F)c3)nn2)ncc1F [Example 414, 2-[[1-[3-(Difluoromethyl)-4-fluoro-phenyl]triazol-4-yl]methoxy]-5-fluoro-N-methyl-pyrimidin-4-amine] | 0.122 µM |
| CN(C)c1ccnc(OCc2cn(-c3ccc(F)c(C(F)F)c3)nn2)n1 [Example 415, 2-[[1-[3-(Difluoromethyl)-4-fluoro-phenyl]triazol-4-yl]methoxy]-N,N-dimethyl-pyrimidin-4-amine] | 0.008 µM |
| Fc1ccc(-n2cc(COc3ncc(N4CC(F)C4)cn3)nn2)cc1C(F)F [Example 416, 2-((1-(3-(Difluoromethyl)-4-fluorophenyl)-1H-1,2,3-triazol-4-yl)methoxy)-5-(3-fluoroazetidin-1-yl)pyrimidine] | 0.01 µM |
| Fc1ccc(-n2cc(COc3ncc(N4CCC4)cn3)nn2)cc1C(F)F [Example 417, 5-(Azetidin-1-yl)-2-((1-(3-(difluoromethyl)-4-fluorophenyl)-1H-1,2,3-triazol-4-yl)methoxy)pyrimidine] | 0.006 µM |
| COC1CN(c2cnc(OCc3cn(-c4ccc(F)c(C(F)F)c4)nn3)nc2)C1 [Example 418, 2-((1-(3-(Difluoromethyl)-4-fluorophenyl)-1H-1,2,3-triazol-4-yl)methoxy)-5-(3-methoxyazetidin-1-yl)pyrimidine] | 0.271 µM |
| Fc1ccc(-n2cc(COc3ncc(N4CC(F)(F)C4)cn3)nn2)cc1C(F)F [Example 419, 5-(3,3-Difluoroazetidin-1-yl)-2-((1-(3-(difluoromethyl)-4-fluorophenyl)-1H-1,2,3-triazol-4-yl)methoxy)pyrimidine] | 0.029 µM |
| CC1(F)CN(c2cnc(OCc3cn(-c4ccc(F)c(C(F)F)c4)nn3)nc2)C1 [Example 420, 2-((1-(3-(Difluoromethyl)-4-fluorophenyl)-1H-1,2,3-triazol-4-yl)methoxy)-5-(3-fluoro-3-methylazetidin-1-yl)pyrimidine] | 0.26 µM |
| Fc1ccc(-n2cc(COc3ncc(N4CC(C(F)F)C4)cn3)nn2)cc1C(F)F [Example 421, 2-((1-(3-(Difluoromethyl)-4-fluorophenyl)-1H-1,2,3-triazol-4-yl)methoxy)-5-(3-(difluoromethyl)azetidin-1-yl)pyrimidine] | 0.227 µM |
| Fc1ccc(-n2cc(COc3ncc(N4CCC(F)(F)C4)cn3)nn2)cc1C(F)F [Example 422, 2-((1-(3-(Difluoromethyl)-4-fluorophenyl)-1H-1,2,3-triazol-4-yl)methoxy)-5-(3,3-difluoropyrrolidin-1-yl)pyrimidine] | 0.068 µM |
| Fc1ccc(-n2cc(COc3ncc(C4CC4)cn3)nn2)cc1C(F)F [Example 423, 5-Cyclopropyl-2-[[1-[3-(difluoromethyl)-4-fluoro-phenyl]triazol-4-yl]methoxy]pyrimidine] | 0.005 µM |
| Fc1ccc(-n2cc(COc3nccc(-c4ccco4)n3)nn2)cc1C(F)F [Example 424, 2-[[1-[3-(Difluoromethyl)-4-fluoro-phenyl]triazol-4-yl]methoxy]-4-(2-furyl)pyrimidine] | 0.141 µM |
| Cc1cnc(OCc2nnn(-c3ccc(F)c(C(F)F)c3)c2I)nc1 [Example 425, 2-[[1-[3-(Difluoromethyl)-4-fluoro-phenyl]-5-iodo-triazol-4-yl]methoxy]-5-methyl-pyrimidine] | 0.394 µM |
| Fc1ccc(-n2cc(COc3ncccc3F)nn2)cc1C(F)(F)F [Example 427, 3-Fluoro-2-[[1-[4-fluoro-3-(trifluoromethyl)phenyl]triazol-4-yl]methoxy]pyridine] | 0.897 µM |
| Fc1ccc(-n2cc(COc3ccc(Cl)cn3)nn2)cc1C(F)(F)F [Example 428, 5-Chloro-2-[[1-[4-fluoro-3-(trifluoromethyl)phenyl]triazol-4-yl]methoxy]pyridine] | 0.796 µM |
| Cc1ccnc(OCc2cn(-c3ccc(F)c(C(F)(F)F)c3)nn2)c1 [Example 429, 2-[[1-[4-Fluoro-3-(trifluoromethyl)phenyl]triazol-4-yl]methoxy]-4-methyl-pyridine] | 0.665 µM |
| Cc1cccc(OCc2cn(-c3ccc(F)c(C(F)(F)F)c3)nn2)n1 [Example 430, 2-[[1-[4-Fluoro-3-(trifluoromethyl)phenyl]triazol-4-yl]methoxy]-6-methyl-pyridine] | 0.11 µM |

Same assay, conditions: standard assay; human GluN1/GluN2B, calcium flux (FLIPR), glutamate ~EC80

| SMILES | IC50 |
| --- | --- |
| CC(C)Oc1ccnc(OCc2cn(-c3ccc(Cl)c(OC(F)F)c3)nn2)n1 [Example 386, 2-((1-(4-Chloro-3-(difluoromethoxy)phenyl)-1H-1,2,3-triazol-4-yl)methoxy)-4-isopropoxypyrimidine] | 0.504 µM |
| COC(=O)c1ccnc(OCc2cn(-c3ccc(Cl)c(OC(F)F)c3)nn2)n1 [Example 387, Methyl 2-((1-(4-chloro-3-(difluoromethoxy)phenyl)-1H-1,2,3-triazol-4-yl)methoxy)pyrimidine-4-carboxylate] | 0.068 µM |
| Fc1cnc(OCc2cn(-c3ccc(Cl)c(OC(F)F)c3)nn2)nc1NCC(F)F [Example 388, 2-[[1-[4-Chloro-3-(difluoromethoxy)phenyl]triazol-4-yl]methoxy]-N-(2,2-difluoroethyl)-5-fluoro-pyrimidin-4-amine] | 0.842 µM |
| CNc1nc(OCc2cn(-c3ccc(Cl)c(OC(F)F)c3)nn2)ncc1F [Example 389, 2-[[1-[4-Chloro-3-(difluoromethoxy)phenyl]triazol-4-yl]methoxy]-5-fluoro-N-methyl-pyrimidin-4-amine] | 0.033 µM |
| Nc1nc(OCc2cn(-c3ccc(Cl)c(OC(F)F)c3)nn2)ncc1F [Example 390, 2-((1-(4-Chloro-3-(difluoromethoxy)phenyl)-1H-1,2,3-triazol-4-yl)methoxy)-5-fluoropyrimidin-4-amine] | 0.006 µM |
| FC(F)Oc1cc(-n2cc(COc3ncc(N4CCC4)cn3)nn2)ccc1Cl [Example 391, 5-(Azetidin-1-yl)-2-((1-(4-chloro-3-(difluoromethoxy)phenyl)-1H-1,2,3-triazol-4-yl)methoxy)pyrimidine] | 0.022 µM |
